Test results taken from patent publication US20110039879A1, “METHODS FOR INCREASING WHITE BLOOD CELLS” (FibroGen ,Inc., priority 2007, published 2011).

Columns and labels:
Type in all cases: in vivo, Swiss-Webster mice
monocytes = assay: Monocytes by complete blood count on day 8, dosing day 1, 3, 5; settings: mice, oral gavage, measured on day 8
[1] = system: total white blood cell (WBC); assay: Total white blood cells by complete blood count on day 8, dosing day 1, 3, 5; settings: Mus musculus, 192 h, mice, oral gavage, measured on day 8, read-out: Total WBC % Increase Over Control; for change in vivo at 60 mg/kg: 60 mg/kg on day 1, day 3 and day 5; for change in vivo at 100 mg/kg: 100 mg/kg on day 1, day 3 and day 5
Procedure: (§1) To examine the effect of compounds and methods of the present invention on increasing white blood cells, the following studies were performed. In one series of experiments, male Swiss-Webster mice were administered various compounds of the present invention via oral gavage using a ball-tipped gavage needle. […] Animals were dosed once daily for 3 or 4 days. Six hours after the final dosing, 200 μl blood samples were collected and total white blood cell, neutrophil, and lymphocyte levels were measured by complete blood count (CBC) using a CellDyn cell analyzer (Abbott Laboratories).
(§2) In another series of experiments, male Swiss-Webster mice were administered various compounds (see Table 7 and Table 8) of the present invention via oral gavage using a ball-tipped gavage needle. […] Total WBC, neutrophil, lymphocyte, and monocyte levels were measured in mice as described above on day 8 following administration of compound on day 1, day 3, and day 5.

neutrophils [2] = assay: Neutrophils by complete blood count on day 8, dosing day 1, 3, 5; settings: mice, oral gavage, measured on day 8
[3] = system: total white blood cell (WBC); assay: Total white blood cells by complete blood count on day 8, dosing day 1, 3, 5; settings: mice, oral gavage, measured on day 8
lymphocytes = assay: Lymphocytes by complete blood count on day 8, dosing day 1, 3, 5; settings: mice, oral gavage, measured on day 8
Procedure: as §1, §2

neutrophils [4] = assay: Neutrophils by complete blood count on day 8, dosing day 1, 3, 5; settings: Mus musculus, Neutrophil, 192 h, mice, oral gavage, measured on day 8, read-out: Neutrophils % Increase Over Control; for change in vivo at 60 mg/kg: 60 mg/kg on day 1, day 3 and day 5; for change in vivo at 100 mg/kg: 100 mg/kg on day 1, day 3 and day 5
Procedure: as §1, §2

[5] = Mus musculus, Monocyte, 192 h, 60 mg/kg on day 1, day 3 and day 5, read-out: Monocytes % Increase Over Control
[6] = 60 mg/kg on day 1, day 3 and day 5
[7] = Mus musculus, Lymphocyte, 192 h, 60 mg/kg on day 1, day 3 and day 5, read-out: Lymphocytes % Increase Over Control
[8] = 100 mg/kg on day 1, day 3 and day 5
[9] = Mus musculus, Lymphocyte, 192 h, 100 mg/kg on day 1, day 3 and day 5, read-out: Lymphocytes % Increase Over Control
[10] = Mus musculus, Monocyte, 192 h, 100 mg/kg on day 1, day 3 and day 5, read-out: Monocytes % Increase Over Control
[11] = 200 mg/kg on day 1, day 3 and day 5
[12] = 6 mg/kg on day 1, day 3 and day 5

| Compound | change in vivo at 60 mg/kg (monocytes; [5]) | Monocytes (monocytes; [6]) | change in vivo at 60 mg/kg [1] | Neutrophils (neutrophils [2]; [6]) | Total WBC [3, 6] | change in vivo at 60 mg/kg (lymphocytes; [7]) | Lymphocytes (lymphocytes; [6]) | change in vivo at 60 mg/kg (neutrophils [4]) | Monocytes (monocytes; [8]) | change in vivo at 100 mg/kg [1] | Neutrophils (neutrophils [2]; [8]) | Total WBC [3, 8] | change in vivo at 100 mg/kg (lymphocytes; [9]) | Lymphocytes (lymphocytes; [8]) | change in vivo at 100 mg/kg (neutrophils [4]) | also measured |
| --- | --- | --- | --- | --- | --- | --- | --- | --- | --- | --- | --- | --- | --- | --- | --- | --- |
| N#Cc1nc(C(=O)NCC(=O)O)c(O)c2ccc(Oc3ccccc3)cc12 [Compound Z, [(1-Cyano-4-hydroxy-7-phenoxy-isoquinoline-3-carbonyl)-amino]-acetic acid] | 200% | 0.1 10^3 cells/μl | 6% | 1.1 10^3 cells/μl | 8.3 10^3 cells/μl | 0% | 7.1 10^3 cells/μl | 80% |  |  |  |  |  |  |  |  |
| Cc1nc(C(=O)NCC(=O)O)c(O)c2cccc(Oc3ccccc3)c12 [Compound AC, [(4-Hydroxy-1-methyl-8-phenoxy-isoquinoline-3-carbonyl)-amino]-acetic acid] |  |  |  |  |  |  |  |  | 0.1 10^3 cells/μl | 94% | 1.0 10^3 cells/μl | 9.2 10^3 cells/μl | 95% | 8.0 10^3 cells/μl | 96% |  |
| O=C(O)CNC(=O)c1ncc2cc(Oc3ccc(F)c(F)c3)ccc2c1O [Compound V, {[7-(3,4-Difluoro-phenoxy)-4-hydroxy-isoquinoline-3-carbonyl]-amino}-acetic acid] |  |  |  |  |  |  |  |  | 0.1 10^3 cells/μl | 145% | 0.8 10^3 cells/μl | 7.1 10^3 cells/μl | 146% | 6.1 10^3 cells/μl | 132% |  |
| N#Cc1nc(C(=O)NCC(=O)O)c(O)c2c(Cl)cn(Cc3ccc(F)cc3)c12 [Compound P, {[3-Chloro-7-cyano-1-(4-fluoro-benzyl)-4-hydroxy-1H-pyrrolo[2,3-c]pyridine-5-carbonyl]-amino}-acetic acid] |  |  |  |  |  |  |  |  | 0.1 10^3 cells/μl | 54% | 0.8 10^3 cells/μl | 10.2 10^3 cells/μl | 60% | 9.1 10^3 cells/μl | 18% | change in vivo at 100 mg/kg (monocytes; [10]): 33% |
| O=C(O)CNC(=O)c1ncc2cc(Br)ccc2c1O [Compound T, [(7-Bromo-4-hydroxy-isoquinoline-3-carbonyl)-amino]-acetic acid] |  | 0.0 10^3 cells/μl | 17% | 1.0 10^3 cells/μl | 7.3 10^3 cells/μl | 13% | 6.2 10^3 cells/μl | 40% |  |  |  |  |  |  |  |  |
| N#Cc1nc(C(=O)NCC(=O)O)c(O)c2c(Cl)cn(Cc3ccccc3C(F)(F)F)c12 [Compound AT, {[3-Chloro-7-cyano-4-hydroxy-1-(2-trifluoromethyl-benzyl)-1H-pyrrolo[2,3-c]pyridine-5-carbonyl]-amino}-acetic acid] |  |  |  |  |  |  |  |  | 0.2 10^3 cells/μl | 81% | 0.8 10^3 cells/μl | 9.4 10^3 cells/μl | 94% | 8.5 10^3 cells/μl | 27% | change in vivo at 100 mg/kg (monocytes; [10]): 94% |
| N#Cc1nc(C(=O)NCC(=O)O)c(O)c2ccn(Cc3ccc(-c4ccccc4)cc3)c12 [Compound AU, [(1-Biphenyl-4-ylmethyl-7-cyano-4-hydroxy-1H-pyrrolo[2,3-c]pyridine-5-carbonyl)-amino]-acetic acid] | 118% | 0.3 10^3 cells/μl | 290% | 1.1 10^3 cells/μl | 22.6 10^3 cells/μl | 332% | 21.0 10^3 cells/μl | 63% |  |  |  |  |  |  |  |  |
| N#Cc1nc(C(=O)NCC(=O)O)c(O)c2c(Cl)cn(Cc3ccccc3)c12 [Compound F, [(1-Benzyl-3-chloro-7-cyano-4-hydroxy-1H-pyrrolo[2,3-c]pyridine-5-carbonyl)-amino]-acetic acid] |  |  |  |  |  |  |  |  | 0.1 10^3 cells/μl | 81% | 0.7 10^3 cells/μl | 12.6 10^3 cells/μl | 86% | 11.6 10^3 cells/μl | 23% |  |
| N#Cc1nc(C(=O)NCC(=O)O)c(O)c2ccn(Cc3ccc(F)cc3)c12 [Compound O, {[7-Cyano-1-(4-fluoro-benzyl)-4-hydroxy-1H-pyrrolo[2,3-c]pyridine-5-carbonyl]-amino}-acetic acid] | 140% | 0.2 10^3 cells/μl | 86% | 0.8 10^3 cells/μl | 11.9 10^3 cells/μl | 102% | 10.9 10^3 cells/μl | -3% |  |  |  |  |  |  |  |  |
| Cc1cc(Cl)cc(C)c1Oc1ccc2c(C#N)nc(C(=O)NCC(=O)O)c(O)c2c1 [Compound J, {[6-(4-Chloro-2,6-dimethyl-phenoxy)-1-cyano-4-hydroxy-isoquinoline-3-carbonyl]-amino}-acetic acid] |  |  |  |  |  |  |  |  | 0.3 10^3 cells/μl | 208% | 0.9 10^3 cells/μl | 23.0 10^3 cells/μl | 236% | 21.7 10^3 cells/μl | 8% | change in vivo at 100 mg/kg (monocytes; [10]): 300% |
| Cc1nc(C(=O)NCC(=O)O)c(O)c2ccc(Cl)cc12 [Compound Y, [(7-Chloro-4-hydroxy-1-methyl-isoquinoline-3-carbonyl)-amino]-acetic acid] |  |  |  |  |  |  |  |  |  |  |  |  |  |  |  | change in vivo at 200 mg/kg (monocytes; Mus musculus, Monocyte, 192 h, 200 mg/kg on day 1, day 3 and day 5, read-out: Monocytes % Increase Over Control): 700%; Monocytes (monocytes; [11]): 0.2 10^3 cells/μl; change in vivo at 200 mg/kg [1, 11]: 34%; Neutrophils (neutrophils [2]; [11]): 1.9 10^3 cells/μl; Total WBC [3, 11]: 9.8 10^3 cells/μl; change in vivo at 200 mg/kg (lymphocytes; Mus musculus, Lymphocyte, 192 h, 200 mg/kg on day 1, day 3 and day 5, read-out: Lymphocytes % Increase Over Control): 17%; Lymphocytes (lymphocytes; [11]): 7.6 10^3 cells/μl; change in vivo at 200 mg/kg (neutrophils [4]; [11]): 200% |
| COc1cccc(Cn2ccc3c(O)c(C(=O)NCC(=O)O)nc(C#N)c32)c1 [Compound M, {[7-Cyano-4-hydroxy-1-(3-methoxy-benzyl)-1H-pyrrolo[2,3-c]pyridine-5-carbonyl]-amino}-acetic acid] | 100% | 0.1 10^3 cells/μl | 149% | 0.6 10^3 cells/μl | 9.7 10^3 cells/μl | 126% | 7.5 10^3 cells/μl |  |  |  |  |  |  |  |  |  |
| O=C(O)CNC(=O)c1ncc2c(Oc3ccccc3)cccc2c1O [Compound AB, [(4-Hydroxy-8-phenoxy-isoquinoline-3-carbonyl)-amino]-acetic acid] |  |  |  |  |  |  |  |  |  |  |  |  |  |  |  | Monocytes (monocytes; [12]): 0.2 10^3 cells/μl; change in vivo at 6 mg/kg (neutrophils [2]; Mus musculus, Neutrophil, 192 h, 6 mg/kg on day 1, day 3 and day 5, read-out: Neutrophils % Increase Over Control): 398%; Neutrophils (neutrophils [2]; [12]): 2.8 10^3 cells/μl; change in vivo at 6 mg/kg ([3]; Mus musculus, 192 h, 6 mg/kg on day 1, day 3 and day 5, read-out: Total WBC % Increase Over Control): 78%; Total WBC [3, 12]: 9.8 10^3 cells/μl; change in vivo at 6 mg/kg (lymphocytes; Mus musculus, Lymphocyte, 192 h, 6 mg/kg on day 1, day 3 and day 5, read-out: Lymphocytes % Increase Over Control): 42%; Lymphocytes (lymphocytes; [12]): 6.8 10^3 cells/μl |
